Results taken from PubChem BioAssay AID270 (DTP/NCI, 2004).
Values joined by “and” are separate entries in the source; they are usually repeats but may differ in a detail not shown here. Identical values can stand only once. Inconclusive results are not listed.

Test system: BDF1 mice, s.c. Lewis lung carcinoma, T/C %
Assay: NCI In Vivo Anticancer Drug Screen. Data for tumor model Lewis Lung Carcinoma (subcutaneous) in B6D2F1 (BDF1) mice
Procedure, shortened: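 Readout: survival or tumor size, expressed as treated (T) over vehicle control (C). Transplantable tumor implanted in mice; compound given to the treated group.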

For Cc1c2ccncc2c(C)c2c1[nH]c1ccccc12, the T/C (endpoint: median survival time, dose: 37.5 mg/kg/injection, schedule: Q04DX003 (ip), vehicle: saline with Tween-80, higher = longer survival) was 120 % of control and the T/C (endpoint: median survival time, dose: 75.0 mg/kg/injection, schedule: Q04DX003 (ip), vehicle: saline with Tween-80, higher = longer survival) was 87 % of control.
In the case of O=C1C=Cc2ccc(O)cc2C1=O, the T/C (endpoint: mean tumor weight, dose: 0.57 mg/kg/injection, schedule: Q01DX011 (ip), vehicle: saline, higher = larger tumour) is reported as 104 % of control, the T/C (endpoint: mean tumor weight, dose: 0.86 mg/kg/injection, schedule: Q01DX011 (ip), vehicle: saline, higher = larger tumour) is reported as 81 % of control and the T/C (endpoint: mean tumor weight, dose: 1.3 mg/kg/injection, schedule: Q01DX011 (ip), vehicle: saline, higher = larger tumour) is reported as 59 % of control. For the same compound, the T/C (endpoint: mean tumor weight, dose: 2.0 mg/kg/injection, schedule: Q01DX011 (ip), vehicle: saline, higher = larger tumour) was 60 % of control.
For O=[N+]([O-])c1ccc([I+]c2ccccc2)cc1, the T/C (endpoint: median survival time, dose: 12.5 mg/kg/injection, schedule: Q01DX009 (ip), vehicle: Klucel (hydroxypropylcellulose) (HPC), higher = longer survival) was 91 % of control and the T/C (endpoint: median survival time, dose: 25.0 mg/kg/injection, schedule: Q01DX009 (ip), vehicle: Klucel (hydroxypropylcellulose) (HPC), higher = longer survival) was 95 % of control.
CCC1=C(c2cc(Cl)c3ccccc3c2OCC(=O)O)OC(CC)(C(=O)c2cc(Cl)c3ccccc3c2OCC(=O)O)CC1 (configuration not stated) was tested, and the T/C (endpoint: mean tumor weight, dose: 2.3 mg/kg/injection, schedule: Q01DX011 (ip), vehicle: carboxymethylcellulose (CMC), higher = larger tumour) was 82 % of control and the T/C (endpoint: mean tumor weight, dose: 3.5 mg/kg/injection, schedule: Q01DX011 (ip), vehicle: carboxymethylcellulose (CMC), higher = larger tumour) was 76 % of control.
For CC(=O)NCCSC(=O)C(=O)SCCNC(C)=O, the T/C (endpoint: mean tumor weight, dose: 25.0 mg/kg/injection, schedule: Q01DX011 (ip), vehicle: saline, higher = larger tumour) was 95 % of control, the T/C (endpoint: mean tumor weight, dose: 50.0 mg/kg/injection, schedule: Q01DX011 (ip), vehicle: saline, higher = larger tumour) was 106 % of control and the T/C (endpoint: mean tumor weight, dose: 100.0 mg/kg/injection, schedule: Q01DX011 (ip), vehicle: saline, higher = larger tumour) was 67 % of control.
Oc1c(Cl)cc(Cl)cc1/C=N/NC(=S)Nc1cc(C(F)(F)F)cc(C(F)(F)F)c1 was tested, and the T/C (endpoint: median survival time, dose: 3.13 mg/kg/injection, schedule: Q01DX009 (ip), vehicle: olive oil, sesame oil, peanut oil, higher = longer survival) was 104 % of control and the T/C (endpoint: median survival time, dose: 12.5 mg/kg/injection, schedule: Q01DX009 (ip), vehicle: olive oil, sesame oil, peanut oil, higher = longer survival) was 90 % of control.
For COc1ccc(C[C@H](N)C(=O)NC2C(CO)OC(n3cnc4c(N(C)C)ncnc43)C2O)cc1 (some centres not stated), the T/C (endpoint: median survival time, dose: 2.0 mg/kg/injection, schedule: Q01DX009 (ip), vehicle: saline, higher = longer survival) was 97 % of control, the T/C (endpoint: median survival time, dose: 4.0 mg/kg/injection, schedule: Q01DX009 (ip), vehicle: saline, higher = longer survival) was 96 % of control and 101 % of control and the T/C (endpoint: median survival time, dose: 8.0 mg/kg/injection, schedule: Q01DX009 (ip), vehicle: saline, higher = longer survival) was 102 % of control. The T/C (endpoint: median survival time, dose: 16.0 mg/kg/injection, schedule: Q01DX009 (ip), vehicle: saline, higher = longer survival) was 99 % of control, the T/C (endpoint: median survival time, dose: 32.0 mg/kg/injection, schedule: Q01DX009 (ip), vehicle: saline, higher = longer survival) was 90 % of control and 110 % of control and the T/C (endpoint: median survival time, dose: 64.0 mg/kg/injection, schedule: Q01DX009 (ip), vehicle: saline, higher = longer survival) was 97 % of control and 102 % of control. For the same compound, the T/C (endpoint: median survival time, dose: 128.0 mg/kg/injection, schedule: Q01DX009 (ip), vehicle: saline, higher = longer survival) was 102 % of control.
